According to publication PMC8119466, “A screen of FDA-approved drugs identifies inhibitors of protein tyrosine phosphatase 4A3 (PTP4A3 or PRL-3)” (Scientific Reports, 2021):
Counter-ions that a name gives are not always drawn. Like-named read-outs stand apart in the source and are kept apart here.

How the values were obtained:
Type in all cases: biochemical
recombinant PRL-1 = target: T1, recombinant PRL-1 (Homo sapiens, UniProt Q93096); assay: In vitro phosphatase assay (DiFMUP hydrolysis), PRL-1; also: test concentration or dose not given here
T1 construct: 6xHis (N, cleaved yes); made in house; host or cells: E. coli One Shot BL21 Star
T1 sequence (Q93096 1-173): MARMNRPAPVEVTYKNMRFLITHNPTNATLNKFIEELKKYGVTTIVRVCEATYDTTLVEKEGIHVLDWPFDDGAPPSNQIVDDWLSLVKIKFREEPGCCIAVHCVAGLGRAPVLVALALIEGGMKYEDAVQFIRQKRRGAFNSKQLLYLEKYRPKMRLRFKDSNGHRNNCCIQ

recombinant PRL-2 = target: T2, recombinant PRL-2 (Homo sapiens, UniProt Q12974); assay: In vitro phosphatase assay (DiFMUP hydrolysis), PRL-2;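 also: PRL-2 activity read as DiFMUP hydrolysis after 20 min at room temperature with drug, enzyme first pre-reduced at 4 °C for 20 min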
T2 construct: 6xHis (N, cleaved yes); made in house; host or cells: E. coli One Shot BL21 Star
T2 sequence (Q12974 1-167): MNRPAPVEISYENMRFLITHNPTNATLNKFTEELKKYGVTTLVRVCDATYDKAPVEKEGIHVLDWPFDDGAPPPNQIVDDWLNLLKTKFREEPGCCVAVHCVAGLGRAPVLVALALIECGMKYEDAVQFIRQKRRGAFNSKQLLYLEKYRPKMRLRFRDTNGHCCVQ

recombinant PRL-3 = target: T3, recombinant PRL-3 (Homo sapiens, UniProt O75365); assay: In vitro phosphatase assay (DiFMUP hydrolysis), PRL-3; also: test concentration or dose not given here
T3 construct: 6xHis (N, cleaved yes); made in house; host or cells: E. coli One Shot BL21 Star
T3 sequence (O75365 whole entry): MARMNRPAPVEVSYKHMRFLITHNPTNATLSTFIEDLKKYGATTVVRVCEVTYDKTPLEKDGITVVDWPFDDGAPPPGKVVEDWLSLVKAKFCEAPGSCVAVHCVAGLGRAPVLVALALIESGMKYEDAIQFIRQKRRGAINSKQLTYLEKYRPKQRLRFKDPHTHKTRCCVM

[1] = FDA-approved drug screen, activity compared to DMSO

Compound	% Phosphatase Activity (compared to DMSO) PRL-1 (recombinant PRL-1; [1]) [%]	% Phosphatase Activity (compared to DMSO) PRL-2 (recombinant PRL-2; [1]) [%]	% Phosphatase Activity (compared to DMSO) PRL-3 (recombinant PRL-3; [1]) [%]	% Phosphatase Activity (compared to DMSO) PRL-1 (recombinant PRL-1) [%]	% Phosphatase Activity (compared to DMSO) PRL-2 (recombinant PRL-2) [%]	% Phosphatase Activity (compared to DMSO) PRL-3 (recombinant PRL-3) [%]
CCOC(=O)c1ccc(C#Cc2ccc3c(c2)C(C)(C)CCS3)nc1 [Tazarotene]	1414	1439	148			
C[C@]1(Cn2ccnn2)[C@H](C(=O)O)N2C(=O)C[C@H]2S1(=O)=O [Tazobactam]	102	103	86			
Cn1nnc(-c2ccc(-c3ccc(N4C[C@H](COP(=O)(O)O)OC4=O)cc3F)cn2)n1 [Tedizolid Phosphate]	97	97	87			
CCC[C@H](NC(=O)[C@@H]1[C@H]2CCC[C@H]2CN1C(=O)[C@@H](NC(=O)[C@@H](NC(=O)c1cnccn1)C1CCCCC1)C(C)(C)C)C(=O)C(=O)NC1CC1 [Telaprevir (VX-950)]	95	104	92			
Cc1cn([C@@H]2C[C@@H](O)[C@H](CO)O2)c(=O)[nH]c1=O [Telbivudine]	106	89	80			
CCCc1nc2c(C)cc(-c3nc4ccccc4n3C)cc2n1Cc1ccc(-c2ccccc2C(=O)O)cc1 [Telmisartan]	86	77	92			
CCOC(=O)[C@@H](N)Cc1ccc(-c2cc(O[C@H](c3ccc(Cl)cc3-n3ccc(C)n3)C(F)(F)F)nc(N)n2)cc1.O=C(O)CNC(=O)c1ccccc1 [Telotristat Etiprate (LX 1606 Hippurate)]	106	108	97			
CCOC(=O)[C@H](CCc1ccccc1)N[C@H]1CS[C@H](c2cccs2)CN(CC(=O)O)C1=O [Temocapril HCl]	91	93	73			
Cn1nnc2c(C(N)=O)ncn2c1=O [Temozolomide]	87	94	65			
CO[C@H]1C[C@@H]2CC[C@@H](C)[C@@](O)(O2)C(=O)C(=O)N2CCCC[C@H]2C(=O)O[C@H]([C@H](C)C[C@@H]2CC[C@@H](OC(=O)C(C)(CO)CO)[C@H](OC)C2)CC(=O)[C@H](C)/C=C(\C)[C@@H](O)[C@@H](OC)C(=O)[C@H](C)C[C@H](C)/C=C/C=C/C=C/1C [Temsirolimus (CCI-779, NSC 683864)]	96	111	91			
COc1cc([C@@H]2c3cc4c(cc3[C@@H](O[C@@H]3O[C@@H]5CO[C@@H](c6cccs6)O[C@H]5[C@H](O)[C@H]3O)[C@H]3COC(=O)[C@H]23)OCO4)cc(OC)c1O [Teniposide]	95	98	97			
CC(C)OC(=O)[C@H](C)N[P@](=O)(CO[C@H](C)Cn1cnc2c(N)ncnc21)Oc1ccccc1 [Tenofovir Alafenamide (GS-7340)]				94	74	91
CC(C)OC(=O)OCOP(=O)(CO[C@H](C)Cn1cnc2c(N)ncnc21)OCOC(=O)OC(C)C [Tenofovir Disoproxil Fumarate]	95	93	82			
C[C@H](Cn1cnc2c(N)ncnc21)OCP(=O)(O)O [Tenofovir]	103	120	100			
CN1C(C(=O)Nc2ccccn2)=C(O)c2sccc2S1(=O)=O [Tenoxicam]	92	75	71			
COc1cc2nc(N3CCN(C(=O)C4CCCO4)CC3)nc(N)c2cc1OC (stereo not drawn) [Terazosin HCl]	510	644	324			
COc1cc2nc(N3CCN(C(=O)C4CCCO4)CC3)nc(N)c2cc1OC (stereo not drawn) [Terazosin]	595	423	448			

Compound	% Phosphatase Activity (compared to DMSO) PRL-1 (recombinant PRL-1; [1]) [%]	% Phosphatase Activity (compared to DMSO) PRL-2 (recombinant PRL-2; [1]) [%]	% Phosphatase Activity (compared to DMSO) PRL-3 (recombinant PRL-3; [1]) [%]	% Phosphatase Activity (compared to DMSO) PRL-1 (recombinant PRL-1) [%]	% Phosphatase Activity (compared to DMSO) PRL-2 (recombinant PRL-2) [%]	% Phosphatase Activity (compared to DMSO) PRL-3 (recombinant PRL-3) [%]
CN(C/C=C/C#CC(C)(C)C)Cc1cccc2ccccc12 [Terbinafine HCl]	100	108	86			
CC(C)(C)NCC(O)c1cc(O)cc(O)c1 (stereo not drawn) [Terbutaline Sulfate]	95	97	101			
CC(C)(C)c1ccc(C(O)CCCN2CCC(C(O)(c3ccccc3)c3ccccc3)CC2)cc1 (stereo not drawn) [Terfenadine]	96	100	91			
C/C(O)=C(\C#N)C(=O)Nc1ccc(C(F)(F)F)cc1 [Teriflunomide]	95	98	84			
CC1(O)CCC(C(C)(C)O)CC1.O (stereo not drawn) [Terpin (hydrate)]	88	92	80			
COc1cc2c(cc1OC)C1CC(=O)C(CC(C)C)CN1CC2 (stereo not drawn) [Tetrabenazine (Xenazine)]	81	89	84			
CCCCNc1ccc(C(=O)OCCN(C)C)cc1 [Tetracaine HCl]	99	116	88			
CN(C)[C@@H]1C(O)=C(C(N)=O)C(=O)[C@@]2(O)C(O)=C3C(=O)c4c(O)cccc4[C@@](C)(O)[C@H]3C[C@@H]12 [Tetracycline HCl]	99	86	61			
Cl.c1ccc2c(c1)CCCC2C1=NCCN1 (stereo not drawn) [Tetrahydrozoline HCl]	111	109	58			
Cl.c1ccc(C2CN3CCSC3=N2)cc1 (stereo not drawn) [Tetramisole HCl]				97	83	102
O=C1CCC(N2C(=O)c3ccccc3C2=O)C(=O)N1 (stereo not drawn) [Thalidomide]	97	91	79			
Cn1c(=O)c2[nH]cnc2n(C)c1=O [Theophylline]	105	98	84			
c1ccc2[nH]c(-c3cscn3)nc2c1 [Thiabendazole]	99	99	119			
CS(=O)(=O)c1ccc([C@@H](O)[C@@H](CO)NC(=O)C(Cl)Cl)cc1 [Thiamphenicol]	103	125	81			
CSc1ccc2c(c1)N(CCC1CCCCN1C)c1ccccc1S2 (stereo not drawn) [Thioridazine HCl]				95	104	97
Cc1ccsc1C(=CCCN1CCC[C@@H](C(=O)O)C1)c1sccc1C [Tiagabine hydrochloride]	100	97	83			
